Data taken from US9884040B2, “Desethylamiodarone for use in cancer treatment” (PÉCSI TUDOMÁNYEGYETEM, priority 2015, dated 2018).

Key:
[1] = test system: 4T1 (mouse mammary carcinoma) cells; assay: MTT cell viability assay, 4T1; format: cell-based; details: 24 h and 48 h; 2.5, 5, 7.5 or 10 μM; vs untreated control
Description: The cells were seeded into 96-well plates at a starting density of 10^4 cells per well and cultured overnight before DEA was added to the medium for 24 h and 48 h. […] The amount of blue formazan dye formed from MTT+ was proportional to the number of live cells, and was determined with an Anthos Labtech 2010 ELISA reader at 550 nm. All experiments were run in at least 4 replicates and repeated 3 times. The effect of desethylamiodarone was measured in T24 (human urinary bladder carcinoma), A549 (human lung adenocarcinoma epithelial), B16F10 (mice melanoma), HeLa (human cervix adenocarcinoma), 4T1 (mouse mammary carcinoma) cell lines. Cells were treated with increasing concentrations of desethylamiodarone for 24 and 48 h. Cell growth was assessed by measuring metabolic activity, which reflects viability in the MTT-test in the course of 24 h, 48 h of continued exposure to desethylamiorarone. The untreated cells served as negative controls. The viability of the cells, was lower in all DEA-treated than in the control group, with the difference being statistically significant. […] 4T1 cells were incubated with the indicated concentrations (2.5, 5, 7.5 or 10 μM) of desethylamiodarone for 24 h and 48 h and cell viability was measured by MTT assay (filled bars). Untreated cells served as controls. Data represent means±S.E.M. of three independent experiments, each running in four replicates.

[2] = test system: B16F10 melanoma lung metastasis; assay: Mouse model of B16F10 lung metastasis; format: in vivo, C57BL/6 mice
Description: To produce experimental metastasis model, male C57BL/6 mice (6 weeks old) were used. B16F10 cells ([…]/0.1 ml) were injected into the lateral tail vein of C57BL/6 mice, using a 30G1/2 needle and a 1-mL syringe. Mice were randomly divided into 3 groups of 6 mice each. Each mouse was given a daily intragastric injection of either 100 μl 15% ethanol solution as the vehicle control or 25 mg/kg DEA. Treatment was started 1 day before cell injection and was given every third day, lasted for consecutive 16 days Sixteen days after injection, the animals were weighed and killed. The lungs were removed, rinsed in PBS, and weighed. The lung weight index was calculated as the ratio of lung weight vs body weight. The harvested lungs were fixed in 4% formalin. Tumor foci on the surfaces of the lungs were counted under a stereomicroscope. Then, the whole lung was embedded in optimum cutting temperature compound (Sakura Finetek, SA), sectioned ([…], 5 levels), and stained with hematoxylin and eosin (H&E) according to routine protocols. […] The percentage of total area of the stained sections occupied by tumor was measured using the Panoramic viewer 1.15.4 (3[…], Hungary) Murine melanoma B16F10 cells were injected into the lateral tail vein of 6-weeks-old male C57BL/6 mice and divided into two groups (6 mice/group). […] Lungs were photographed (FIG. 9 A,B), weighted and lung weight index was calculated as the ratio of lung weight versus body weight of host mice, and was compared between the two groups. […] Metastatic nodules on lung surface were counted. […] 24 h after injection of melanoma B16F10 cells, mice in the control group were treated with vehicle (alcohol), mice in the treatment group were injected with desethylamiodarone (25 mg/kg, i.p., every 3rd day.) After 16 day's mice were sacrificed and then analyzed. […] Lung weight was determined and lung weight index was calculated (C). Tumor growth was monitored also by counting the tumor nodules (D). […] Lung tissue sections were analyzed histopathological after H & E staining. […]

GSK-3β = assay: Western blot of GSK-3β phosphorylation; format: cell-based, human; details: 5-10-15 μM, 6 hours; T24, B16F10 cell lines
Description: 10^6 cells were seeded into regular plates and treated as for the cell viability assay. Cells were harvested at intervals in a chilled lysis buffer containing 0.5 mM sodium-metavanadate, 1 mM ethylenediaminetetraacetic acid (EDTA) and protease inhibitor cocktail in phosphate-buffered saline (PBS). Probes were boiled and subjected to 10% sodium dodecyl sulphate polyacrylamide gel electrophoresis then transferred to nitrocellulose membranes. The membranes were blocked in 5% low fat milk for 1.5 h at room temperature then exposed to primary antibodies at 4° C. overnight in blocking solution. Appropriate horseradish peroxidase-conjugated secondary antibodies were used at a 1:5000 dilution (anti-mouse and anti-rabbit IgGs; Sigma-Aldrich, Steinheim, Germany) and visualized by enhanced chemiluminescence (Amersham Biosciences, Piscataway, N.J., USA). All experiments were repeated 3 times.
To determine the downstream consequences of DEA treatment, we examined the phosphorylation status of AKT (protein kinase B), GSK-3β and p42/44 mitogen-activated protein kinase (MAPK) (ERK1/2) by immunoblotting in T24 (human urinary bladder carcinoma), B16F10 (mice melanoma) cell lines. Cells were cultured in the presence of 5-10-15 μM DEA for 6 hours. The cells were prepared and western blot analysis was carried out to perform both phosphorylated and non-phosphorylated forms of the previously listed proteins. […]

[3] = clinically relevant concentrations; cited from earlier work
[4] = 25 mg/kg i.p. every 3rd day, day 16, B16F10 tail vein injection

SMILES: CCCCc1oc2ccccc2c1C(=O)c1cc(I)c(OCCNCC)c(I)c1 [DEA, (2-butyl-3-benzofuranyl)[4-[2-(ethylamino)ethoxy]-3,5-diiodophenyl]-methanone]
- Viability of 4T1 cells (MTT) [1]: Significantly different from control group at p<0.05
- Lung weight index (lung weight versus body weight) [2, 4]: significantly *P<0.001 inhibited lung weight increase
- Number of tumor nodules on lung surface [2, 4]: dramatically decrease in the number of tumor nodules
- Percentage of tumor area over lung section area (H&E) ([2]; 25 mg/kg/3 days, n=6 per group): significantly decreased
- GSK-3β phosphorylation (GSK-3β): decreased the phosphorylation of GSK-3β
- Action potential duration (class III antiarrhythmic effect) [3]: significantly increasing the action potential duration
- Maximum rate of depolarization (class I antiarrhythmic effect) [3]: decreasing the maximum rate of depolarization
